# From publication PMC11589483, “Preparation and anti-colon cancer effect of a novel curcumin analogue (CA8): in vivo and in vitro evaluation” (Frontiers in Pharmacology, 2024)
# Tests used:
# [1] = Solubility in water by HPLC; type: physicochemical; conditions: 25°C, mass of solute dissolved at saturation in 100 g of solvent
# Experimental: The solubility of the synthesized compounds in water was determined using high performance liquid chromatography (HPLC). First, 1.000 g of each compound was accurately weighed, placed in 100 g of water, and stirred at 25°C for a period of time. Then, the reaction system was allowed to stand for 1 h. The supernatant was quantitatively taken, diluted with methanol to volume, and centrifuged, and the solubility was determined using HPLC.
# lung cancer cells A549 = experiment: MTT antiproliferative assay, A549; type: cell-based; conditions: Homo sapiens
# Experimental: (§1) The human cancer cell lines A549, HepG2, MCF-7, Caco-2, and HeLa and the normal human liver cell line LO2 were all obtained from Shanghai Cell Bank of China. All cells were cultured in RPMI 1640 or DMEM supplemented with 10% fetal bovine serum, 100 U/mL penicillin, and 100 μg/mL streptomycin and incubated at 37°C under 5% CO2 (HEPA incubator class100 Thermo company). The medium was replaced three times a week. Cells used in all were in the exponential growth phase.
# (§2) The cell inhibition rate was evaluated using the MTT assay. Briefly, cells were seeded in a 96-well plate at a density of 3–4 × 10^3 cells per well and incubated at 37°C for 24 h. The MCACs to be tested were dissolved in dimethyl sulfoxide (DMSO, Merck, Germany) and diluted to five concentrations (3.75, 7.5, 15, 30, 60 μM/L) with RPMI 1640 medium, with each dose analyzed in quadruplicate. The concentration of DMSO was always maintained below 1‰, a concentration that is nontoxic to cells. After incubation for 24 or 48 h, MTT reagent (5 mg/mL) was added to each well and the samples were incubated for 3 h at 37°C in the dark. The absorbance of formazan crystals dissolved in 150 µL of DMSO was measured at 570 nm using a microplate reader to identify the cytotoxic effect of the analogues.
# [2] = tested on: breast cancer cells MCF-7; experiment: MTT antiproliferative assay, MCF-7; type: cell-based; conditions: Homo sapiens
# Experimental: as §1, §2
# [3] = tested on: normal human liver cell line LO2; experiment: MTT assay, normal liver cells LO2; type: cell-based
# Experimental: as §1, §2
# Caco-2 cells [4] = experiment: Hoechst 33,258 staining; type: cell-based, human; conditions: Caco-2, 24 h
# Experimental: Caco-2 cells were seeded in 6-well plates at a density of 5 × 10^5 cells per well and incubated overnight, followed by the addition of the prescribed concentration (4, 8, or 16 μM/L) of CA8. After 24 h of incubation, cells were fixed and stained with Hoechst 33,258.
# Caco-2 cells [5] = experiment: Apoptosis assay (Annexin V-FITC/propidium iodide flow cytometry); type: cell-based, human; conditions: 4, 8, 16 μM, 24 h
# Experimental: The apoptotic effect of CA8 was assessed in Caco-2 cells according to the kit instructions. First, Caco-2 cells were treated with CA8 at dose of 4, 8, or 16 μM/L for 24 h. The cells were harvested and suspended in 500 μL annexin-binding buffer. Subsequently, the cells were stained with Annexin V-FITC for 15 min and then incubated with propidium iodide for 5 min at room temperature in the dark. Finally, all samples were evaluated via flow cytometry (FACS Calibur, BD, San Jose, CA, United States). The results obtained were analyzed using the FlowJo software, and the apoptotic rate was calculated.
# Caco-2 cells [6] = experiment: Cell cycle analysis (flow cytometry); type: cell-based, human; conditions: 4, 8, 16 μM, 24 h
# Experimental: Caco-2 cells treated with CA8 at dose of 4, 8, or 16 μM/L for 24 h, they were collected, washed with PBS, and fixed in 70% ethanol overnight. The fixed cells were washed twice with PBS, treated with RNase A (10 mg/mL) and resuspended in 50 μg/mL propidium iodide for staining. Finally, the cell cycle distribution was assessed via flow cytometry (BD Biosciences, CA).
# [7] = tested on: AKT, JNK, and NF-κB signaling pathways and apoptosis-related proteins; experiment: Western blot of signaling and apoptosis proteins in Caco-2 cells; type: cell-based, human; conditions: 24 h
# Experimental: The expression of apoptotic proteins and pathways was detected using western blot. Caco-2 cells treated with CA8 at a dose of 4, 8, or 16 μM/L for 24 h were collected and lysed with RIPA lysis buffer for 10 min. The concentration of total proteins was determined using a BCA protein quantitative kit. Total proteins were separated on an SDS-PAGE gel, transferred to PVDF membranes and incubated with 5% skim milk for 2 h. Subsequently, the PVDF membranes were incubated with primary antibodies (AKT 1:2000; Bcl-2 1:2000; Bax 1:5000; caspase-3 1:2,000; caspase-9 1:1000; P-AKT 1:1000; JNK 1:1000; P-JNK 1:1000; IKBα 1:2000; and β-actin 1:100000) at 4°C overnight. The membranes were rinsed three times with TBST and incubated with secondary antibodies (1:5000 dilution) for 2–3 h at room temperature. Finally, proteins were visualized using an ECL chemiluminescent kit (KF001, affinity). In the final step, the ImageJ software was used to analyze the results.
# Caco-2 xenograft tumors = experiment: In vivo anticancer activity, Caco-2 xenograft
# Experimental: Twenty 5-week-old male BALB nude mice purchased from SPF (Beijing) Biotechnology Co., Ltd. were used for the in vivo pharmacodynamic experiment of CA8. Caco-2 cells (6 × 10^6 cells in 100 μL PBS) were harvested and subcutaneously injected into the right hip of the mice. Then, they were divided into four groups when the tumor volume reached 100 mm^3 and treated with saline, CU (100 mg/kg), tegafur (50 mg/kg), or CA8 (100 mg/kg) via gavage every other day. Tumor size and body weight were measured and recorded every other day. At the end of the experiment, the mice were sacrificed and tumors were harvested and weighed. Tumor volumes were calculated by measuring length (L) and width (W) according to the following formula: V = 0.5 × L × W^2. The tumor tissue was embedded in paraffin, cut into slices, stained with HE, and observed under a light microscope.
# Ki67 = experiment: Immunohistochemistry of tumor tissue; type: in vivo, BALB nude mice; conditions: Caco-2 xenograft, 100 mg/kg
# [8] = Caco-2, 4, 8, 16 μM, vs control
smiles,measurement,setting,value
COc1cc(/C=C2\CN(C(C)C)C/C(=C\c3cc(OC)c(O)c(OC)c3)C2=O)cc(OC)c1O [CA8],Solubility,[1],403.44 mg/100g
same,IC50,"lung cancer cells A549; A549, 24 h",5.66 ± 0.25 µM
same,IC50,"lung cancer cells A549; A549, 48 h",9.31 ± 1.08 µM
same,IC50,"[2]; MCF7, 24 h",10.9 ± 4.21 µM
same,IC50,"[2]; MCF7, 48 h",7.23 ± 1.55 µM
same,IC50,[3]; 24 h,4.3 ± 0.21 µM
same,IC50,[3]; 48 h,2 ± 0.04 µM
same,nuclear morphology / apoptotic cells,Caco-2 cells [4],many apoptotic cells were observed
same,induction of apoptosis,Caco-2 cells [5],induced more apoptosis than CU at high and medium concentrations
same,cell cycle arrest,Caco-2 cells [6],induced G2/M phase arrest in a concentration-dependent manner
same,"expression of Bax, caspase-3, and caspase-9","[7]; Caco-2, 4, 8, 16 μM",increased in a concentration-dependent manner
same,expression of P-AKT,[7]; [8],inhibited the expression of P-AKT
same,expression of P-JNK and IκBα,[7]; [8],induced the expression of P-JNK and IκBα in a concentration-dependent manner
same,expression of anti-apoptotic protein BCL-2,"[7]; Caco-2, high concentration",significantly inhibited
same,tumor inhibition rate,"Caco-2 xenograft tumors; Caco-2 xenograft nude mice, 100 mg/kg via gavage every other day",63.93%
same,HE staining of tumor mass,"Caco-2 xenograft tumors; Caco-2 xenograft, 100 mg/kg",large necrotic area in the tumor mass
same,inhibitory effect on tumor growth,"Caco-2 xenograft tumors; Caco-2 xenograft, CA8 100 mg/kg, CU 100 mg/kg, tegafur 50 mg/kg, gavage every other day",more significant inhibitory effect on tumor growth than CU and tegafur
same,body weight change / toxicity during therapy,"Caco-2 xenograft tumors; nude mice, 13 days of therapy, 100 mg/kg gavage",did not lead to a significant toxicity
same,expression of Ki67 in tumor tissues,Ki67,significantly reduced the expression of Ki67
